From article PMC10636171 (Cell Death & Disease, 2023)

How the values were obtained:
ABL2 = biological target: T1, ABL2 (Homo sapiens, UniProt P42684); test: HTRF/ADP-Glo kinase selectivity panel; assay type: biochemical; conditions: 500 nM, read-out: 1D228(%inhibition)@500nM
T1 construct: purchased Invitrogen (c-Met, TRKA, TRKB, TRKC)
Protocol: (§1) The compound was serial diluted from 10 mM stock in DMSO, dilute the test compound to 0.1 mM (200 times the specified test concentration). 2 × ATP & Substrate solution and 2 × kinase & Metal solution were prepared using assay buffer; Transfer 25 nL compound to 384 assay plate by Echo 655; After centrifugation, add 2.5 μL 2 × kinase/metal ion solution 384 assay plate, and incubate at 25 °C for 10 min. 2 × XL665 & Antibody solution were prepared with detection buffer; 5 μL of Kinase Detection Reagent was added to the well, and incubated for 60 min at 25 °C; The fluorescence signals of 620 nm (Cryptate) and 665 nm (XL665) were read by microtiter plate reader; […]

EPHA6 = biological target: T2, EPHA6 (Homo sapiens, UniProt Q9UF33); test: HTRF/ADP-Glo kinase selectivity panel; assay type: biochemical; conditions: 500 nM, read-out: 1D228(%inhibition)@500nM
T2 construct: purchased Invitrogen (c-Met, TRKA, TRKB, TRKC)
Protocol: as §1

EPHA7 = biological target: T3, EPHA7 (Homo sapiens, UniProt Q15375); test: HTRF/ADP-Glo kinase selectivity panel; assay type: biochemical; conditions: 500 nM, read-out: 1D228(%inhibition)@500nM
T3 construct: purchased Invitrogen (c-Met, TRKA, TRKB, TRKC)
Protocol: as §1

FES = biological target: T4, FES (Homo sapiens, UniProt P07332); test: HTRF/ADP-Glo kinase selectivity panel; assay type: biochemical; conditions: 500 nM, read-out: 1D228(%inhibition)@500nM
T4 construct: purchased Invitrogen (c-Met, TRKA, TRKB, TRKC)
Protocol: as §1

FGR = biological target: T5, FGR (Homo sapiens, UniProt P09769); test: HTRF/ADP-Glo kinase selectivity panel; assay type: biochemical; conditions: 500 nM, read-out: 1D228(%inhibition)@500nM
T5 construct: purchased Invitrogen (c-Met, TRKA, TRKB, TRKC)
Protocol: as §1

FLT1 = biological target: T6, FLT1 (Homo sapiens, UniProt P17948); test: HTRF/ADP-Glo kinase selectivity panel; assay type: biochemical; conditions: 500 nM, read-out: 1D228(%inhibition)@500nM
T6 construct: purchased Invitrogen (c-Met, TRKA, TRKB, TRKC)
Protocol: as §1

JAK1 = biological target: T7, JAK1 (Homo sapiens, UniProt P23458); test: HTRF/ADP-Glo kinase selectivity panel; assay type: biochemical; conditions: 500 nM, read-out: 1D228(%inhibition)@500nM
T7 construct: purchased Invitrogen (c-Met, TRKA, TRKB, TRKC)
T7 sequence (P23458 whole entry): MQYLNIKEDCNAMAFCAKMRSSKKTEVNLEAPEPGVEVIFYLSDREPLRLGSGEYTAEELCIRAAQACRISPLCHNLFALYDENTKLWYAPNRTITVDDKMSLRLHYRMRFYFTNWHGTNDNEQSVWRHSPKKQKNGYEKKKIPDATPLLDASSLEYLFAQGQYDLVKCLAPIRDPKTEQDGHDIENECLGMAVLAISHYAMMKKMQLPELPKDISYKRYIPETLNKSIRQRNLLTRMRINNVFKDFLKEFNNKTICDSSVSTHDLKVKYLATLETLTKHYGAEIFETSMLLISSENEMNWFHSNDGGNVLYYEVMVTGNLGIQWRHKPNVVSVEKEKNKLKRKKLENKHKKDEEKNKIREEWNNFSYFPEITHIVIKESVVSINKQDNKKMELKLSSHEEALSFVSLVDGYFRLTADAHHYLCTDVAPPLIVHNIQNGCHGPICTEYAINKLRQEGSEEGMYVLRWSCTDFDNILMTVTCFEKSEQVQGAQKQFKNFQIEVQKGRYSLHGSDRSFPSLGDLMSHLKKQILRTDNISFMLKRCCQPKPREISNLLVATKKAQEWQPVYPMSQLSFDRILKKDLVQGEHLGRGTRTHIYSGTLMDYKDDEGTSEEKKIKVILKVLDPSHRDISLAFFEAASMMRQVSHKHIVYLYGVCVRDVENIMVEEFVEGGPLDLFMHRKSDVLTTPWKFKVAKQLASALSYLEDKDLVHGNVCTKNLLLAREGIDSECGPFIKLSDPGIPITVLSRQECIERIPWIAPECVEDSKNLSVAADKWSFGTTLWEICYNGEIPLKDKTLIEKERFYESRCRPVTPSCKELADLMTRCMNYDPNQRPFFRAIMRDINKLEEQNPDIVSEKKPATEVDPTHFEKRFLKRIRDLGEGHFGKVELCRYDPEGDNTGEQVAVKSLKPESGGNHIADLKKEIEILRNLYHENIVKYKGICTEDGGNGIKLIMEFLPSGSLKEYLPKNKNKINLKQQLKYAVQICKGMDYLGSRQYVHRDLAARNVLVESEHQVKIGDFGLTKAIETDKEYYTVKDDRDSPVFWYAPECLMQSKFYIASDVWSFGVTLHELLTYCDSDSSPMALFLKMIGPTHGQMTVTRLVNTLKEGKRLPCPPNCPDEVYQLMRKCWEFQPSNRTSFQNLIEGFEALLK
Protocol: as §1

KIT = biological target: T8, KIT (Homo sapiens, UniProt P10721); test: HTRF/ADP-Glo kinase selectivity panel; assay type: biochemical; conditions: 500 nM, read-out: 1D228(%inhibition)@500nM
T8 construct: purchased Invitrogen (c-Met, TRKA, TRKB, TRKC)
T8 sequence (P10721 26-976): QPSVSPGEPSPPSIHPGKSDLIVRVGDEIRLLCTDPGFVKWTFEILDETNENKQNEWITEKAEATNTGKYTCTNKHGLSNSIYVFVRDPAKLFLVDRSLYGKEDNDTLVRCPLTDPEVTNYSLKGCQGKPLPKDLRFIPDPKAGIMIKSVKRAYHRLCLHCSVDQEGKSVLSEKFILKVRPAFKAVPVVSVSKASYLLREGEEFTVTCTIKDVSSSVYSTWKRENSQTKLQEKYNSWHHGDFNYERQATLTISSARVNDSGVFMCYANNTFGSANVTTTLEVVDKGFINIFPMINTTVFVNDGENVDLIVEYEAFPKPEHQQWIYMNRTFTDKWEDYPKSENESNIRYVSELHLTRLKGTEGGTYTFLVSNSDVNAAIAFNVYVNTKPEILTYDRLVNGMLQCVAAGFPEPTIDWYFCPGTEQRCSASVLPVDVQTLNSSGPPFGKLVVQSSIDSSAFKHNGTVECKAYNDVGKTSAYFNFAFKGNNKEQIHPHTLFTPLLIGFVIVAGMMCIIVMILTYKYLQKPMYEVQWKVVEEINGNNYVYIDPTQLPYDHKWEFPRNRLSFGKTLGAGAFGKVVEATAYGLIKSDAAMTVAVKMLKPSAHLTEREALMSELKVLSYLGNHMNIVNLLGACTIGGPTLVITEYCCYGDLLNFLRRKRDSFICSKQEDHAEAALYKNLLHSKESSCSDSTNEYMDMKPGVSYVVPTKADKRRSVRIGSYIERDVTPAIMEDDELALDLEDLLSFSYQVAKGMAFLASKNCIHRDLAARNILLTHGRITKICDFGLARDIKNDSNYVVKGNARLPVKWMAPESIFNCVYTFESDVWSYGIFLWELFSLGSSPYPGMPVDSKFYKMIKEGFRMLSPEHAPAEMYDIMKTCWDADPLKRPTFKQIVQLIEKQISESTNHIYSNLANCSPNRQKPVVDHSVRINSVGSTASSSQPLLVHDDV
Protocol: as §1

LYNb = biological target: T9, LYNb (Homo sapiens, UniProt P07948); test: HTRF/ADP-Glo kinase selectivity panel; assay type: biochemical; conditions: 500 nM, read-out: 1D228(%inhibition)@500nM
T9 construct: purchased Invitrogen (c-Met, TRKA, TRKB, TRKC)
Protocol: as §1

MUSK = biological target: T10, MUSK (Homo sapiens, UniProt O15146); test: HTRF/ADP-Glo kinase selectivity panel; assay type: biochemical; conditions: 500 nM, read-out: 1D228(%inhibition)@500nM
T10 construct: purchased Invitrogen (c-Met, TRKA, TRKB, TRKC)
Protocol: as §1

PDGFRα = biological target: T11, PDGFRα (Homo sapiens, UniProt P16234); test: HTRF/ADP-Glo kinase selectivity panel; assay type: biochemical; conditions: 500 nM, read-out: 1D228(%inhibition)@500nM
T11 construct: purchased Invitrogen (c-Met, TRKA, TRKB, TRKC)
Protocol: as §1

SRC = biological target: T12, SRC (Homo sapiens, UniProt P12931); test: HTRF/ADP-Glo kinase selectivity panel; assay type: biochemical; conditions: 500 nM, read-out: 1D228(%inhibition)@500nM
T12 construct: purchased Invitrogen (c-Met, TRKA, TRKB, TRKC)
Protocol: as §1

SRM = biological target: T13, SRM (Homo sapiens, UniProt Q9H3Y6); test: HTRF/ADP-Glo kinase selectivity panel; assay type: biochemical; conditions: 500 nM, read-out: 1D228(%inhibition)@500nM
T13 construct: purchased Invitrogen (c-Met, TRKA, TRKB, TRKC)
T13 sequence (Q9H3Y6 whole entry): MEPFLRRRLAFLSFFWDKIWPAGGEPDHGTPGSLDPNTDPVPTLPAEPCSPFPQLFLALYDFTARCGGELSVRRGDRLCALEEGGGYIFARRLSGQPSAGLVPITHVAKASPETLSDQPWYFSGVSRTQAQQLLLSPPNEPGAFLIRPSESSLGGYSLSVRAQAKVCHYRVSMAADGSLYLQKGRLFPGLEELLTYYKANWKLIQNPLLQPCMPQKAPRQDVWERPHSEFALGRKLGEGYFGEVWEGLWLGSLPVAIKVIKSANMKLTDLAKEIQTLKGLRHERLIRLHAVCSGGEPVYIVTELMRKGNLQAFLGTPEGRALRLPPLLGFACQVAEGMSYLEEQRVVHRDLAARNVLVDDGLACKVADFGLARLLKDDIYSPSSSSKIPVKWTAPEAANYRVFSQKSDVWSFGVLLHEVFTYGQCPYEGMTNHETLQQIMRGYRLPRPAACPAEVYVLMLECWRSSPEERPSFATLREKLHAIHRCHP
Protocol: as §1

TRKC [1] = biological target: T14, TRKC (Homo sapiens, UniProt Q16288); test: HTRF/ADP-Glo kinase selectivity panel; assay type: biochemical; conditions: 500 nM, read-out: 1D228(%inhibition)@500nM
T14 construct: purchased Invitrogen (c-Met, TRKA, TRKB, TRKC)
T14 sequence (Q16288 32-839): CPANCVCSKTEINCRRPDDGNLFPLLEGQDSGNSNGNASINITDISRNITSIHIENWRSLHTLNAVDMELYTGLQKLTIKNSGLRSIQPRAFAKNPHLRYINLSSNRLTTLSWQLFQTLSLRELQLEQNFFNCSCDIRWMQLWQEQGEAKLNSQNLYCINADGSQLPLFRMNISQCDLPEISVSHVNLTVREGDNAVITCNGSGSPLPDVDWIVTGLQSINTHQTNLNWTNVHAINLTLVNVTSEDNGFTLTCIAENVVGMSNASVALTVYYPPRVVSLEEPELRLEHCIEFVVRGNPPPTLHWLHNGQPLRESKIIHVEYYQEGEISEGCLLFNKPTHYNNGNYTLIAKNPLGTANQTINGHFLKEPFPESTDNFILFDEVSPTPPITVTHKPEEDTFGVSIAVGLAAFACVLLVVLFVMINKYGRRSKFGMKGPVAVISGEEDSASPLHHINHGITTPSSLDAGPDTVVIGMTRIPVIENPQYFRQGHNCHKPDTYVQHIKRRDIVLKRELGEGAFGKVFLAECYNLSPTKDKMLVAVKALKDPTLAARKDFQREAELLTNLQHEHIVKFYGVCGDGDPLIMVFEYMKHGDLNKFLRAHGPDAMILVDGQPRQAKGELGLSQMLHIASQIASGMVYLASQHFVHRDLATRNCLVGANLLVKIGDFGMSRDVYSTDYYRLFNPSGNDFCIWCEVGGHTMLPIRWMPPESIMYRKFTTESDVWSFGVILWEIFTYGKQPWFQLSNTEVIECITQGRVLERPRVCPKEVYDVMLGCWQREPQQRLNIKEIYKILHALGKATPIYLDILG
Protocol: as §1

[2] = Liver microsomal stability assay; assay type: in vitro ADME; conditions: liver microsomes, pH 7.4
Protocol: The incubation system (including 0.1 M PH 7.4 phosphate buffer, NADPH generation system, UGT incubation system, 0.5 mg/mL liver microsomal protein and appropriate concentration of drug to be tested) was incubated in a water bath at 37 °C for […]. Each sample was incubated three times in parallel, and an equal volume of pre-chilled acetonitrile was added at preset reaction time points, such as 0, 5, 10, 15, 30 and 60 min. The reaction was terminated by the addition of acetonitrile. The remaining content of the prototype drug in the warm incubation solution was determined by HPLC, HPLC-MC and HPLC-MC/MC.

TRKA = biological target: T15, TRKA (Homo sapiens, UniProt P04629); test: HTRF kinase assay; assay type: biochemical
T15 construct: purchased Invitrogen (c-Met, TRKA, TRKB, TRKC)
Protocol: (§2) HTRF kinase assay to test the activity of compound 1D228 on c-Met and NTRK kinases: c-Met, TRKA, TRKB and TRKC as well as the Zˊ-Lyte kinase Kit were purchased from Invitrogen. The experiments were performed according to the instructions of the manufacturer. Concentrations consisting of 2 or 10 levels from 0.001 to 1 mM were used for 1D228. Plate was measured on multifunction microplate reader (Molecular Devices, Flex Station 3). Curve fitting and data presentations were performed using Graph Pad Prism version 5.0. Every experiment was repeated at least 3 times.

TRKB = biological target: T16, TRKB (Homo sapiens, UniProt Q16620); test: HTRF kinase assay; assay type: biochemical
T16 construct: purchased Invitrogen
Protocol: as §2

TRKC [3] = biological target: T14, TRKC; test: HTRF kinase assay; assay type: biochemical
Protocol: as §2

c-Met kinase = biological target: T17, c-Met kinase (Homo sapiens, UniProt P08581); test: HTRF kinase assay; assay type: biochemical
T17 construct: purchased Invitrogen
T17 sequence (P08581 25-1390): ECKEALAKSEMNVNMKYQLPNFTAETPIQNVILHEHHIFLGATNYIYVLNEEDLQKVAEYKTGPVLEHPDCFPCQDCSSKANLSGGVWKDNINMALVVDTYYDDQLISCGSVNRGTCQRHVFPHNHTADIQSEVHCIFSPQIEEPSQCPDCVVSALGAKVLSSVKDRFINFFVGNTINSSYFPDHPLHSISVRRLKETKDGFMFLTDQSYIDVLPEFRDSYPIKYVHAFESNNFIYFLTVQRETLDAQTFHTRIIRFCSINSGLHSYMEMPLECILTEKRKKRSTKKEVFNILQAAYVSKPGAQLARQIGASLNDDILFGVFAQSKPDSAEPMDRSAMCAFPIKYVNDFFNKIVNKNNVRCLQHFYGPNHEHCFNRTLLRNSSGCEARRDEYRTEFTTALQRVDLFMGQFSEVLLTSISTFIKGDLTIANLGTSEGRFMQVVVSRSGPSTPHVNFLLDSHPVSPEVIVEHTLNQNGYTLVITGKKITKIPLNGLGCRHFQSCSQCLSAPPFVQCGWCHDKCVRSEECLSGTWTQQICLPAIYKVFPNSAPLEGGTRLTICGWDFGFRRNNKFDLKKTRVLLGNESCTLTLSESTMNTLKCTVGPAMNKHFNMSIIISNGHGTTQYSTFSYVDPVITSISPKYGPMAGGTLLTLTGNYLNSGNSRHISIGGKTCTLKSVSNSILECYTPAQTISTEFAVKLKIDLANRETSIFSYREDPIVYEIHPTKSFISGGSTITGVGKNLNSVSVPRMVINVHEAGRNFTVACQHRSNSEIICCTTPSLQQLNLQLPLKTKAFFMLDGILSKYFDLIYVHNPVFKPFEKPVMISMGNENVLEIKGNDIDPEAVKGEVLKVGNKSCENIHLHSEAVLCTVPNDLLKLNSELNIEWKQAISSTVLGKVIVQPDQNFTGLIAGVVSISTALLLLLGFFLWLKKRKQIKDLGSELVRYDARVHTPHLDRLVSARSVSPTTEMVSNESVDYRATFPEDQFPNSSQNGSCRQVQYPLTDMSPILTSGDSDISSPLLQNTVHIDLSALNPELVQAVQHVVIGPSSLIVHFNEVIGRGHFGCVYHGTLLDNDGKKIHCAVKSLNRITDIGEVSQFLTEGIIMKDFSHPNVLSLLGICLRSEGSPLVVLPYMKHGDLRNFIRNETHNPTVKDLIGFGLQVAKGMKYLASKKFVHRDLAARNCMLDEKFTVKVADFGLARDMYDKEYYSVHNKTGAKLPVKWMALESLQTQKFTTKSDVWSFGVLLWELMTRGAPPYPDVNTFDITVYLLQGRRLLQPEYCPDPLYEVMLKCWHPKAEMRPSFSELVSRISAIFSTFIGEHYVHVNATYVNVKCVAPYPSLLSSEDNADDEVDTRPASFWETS
Protocol: as §2

[4] = tested on: phosphorylated c-Met in MHCC97H cells; test: Western blot of phosphorylated c-Met; assay type: cell-based, human; conditions: concentration as low as 1 nM
Protocol: (§3) Proteins (25–50 ug/lane) were separated on a 4–12% Bis-Tris NuPAGE gel and blotted onto a PVDF membrane (FluoroTrans; VWR). […] Horseradish peroxidase-conjugated secondary antibodies were from Cell Signaling. Proteins were visualized by enhanced chemiluminescence (Millipore) on ChemiDoc camera (Bio-Rad) and protein expression levels were quantified using the lmageJ software. Full anduncropped western blots are presented in Supplemental File.

[5] = tested on: phosphorylated c-Met in MKN45 cells; test: Western blot of phosphorylated c-Met; assay type: cell-based, human; conditions: MKN45, concentration as low as 1 nM
Protocol: as §3

[6] = Hematoxylin and eosin histology of major tissues; assay type: in vivo; conditions: following various treatments
Protocol: Female and male Kunming mice (36 mice each, 18 ~ 25 g) were purchased and housed at the SPF (Beijing) Biotechnology Co. in pathogen-free condition, maintained at constant room temperature and fed a standard rodent chow and water. The mice were randomly divided into experimental group and control group. […]. The heart, liver, lung and kidney of mice in the 750 mg/kg dose group were taken and fixed for HE staining.

Cyclin D1 = test: Western blot of Cyclin D1; assay type: cell-based; conditions: 5 nM and 10 nM
Protocol: as §3

## [2H][C@@](C)(c1cccc(-c2ncc(OCC3CCN(C)CC3)cn2)c1)n1nc(-c2cccc(C#N)c2)ccc1=O [1D228]
ABL2
  inhibition at 0.5 µM: 4.45%
EPHA6
  inhibition at 0.5 µM: -1.78%
EPHA7
  inhibition at 0.5 µM: -1.36%
FES
  inhibition at 0.5 µM: 1.05%
FGR
  inhibition at 0.5 µM: -20.7%
FLT1
  inhibition at 0.5 µM: 6%
JAK1
  inhibition at 0.5 µM: 7.19%
KIT
  inhibition at 0.5 µM: -4.5%
LYNb
  inhibition at 0.5 µM: 5.26%
MUSK
  inhibition at 0.5 µM: 9.13%
PDGFRα
  inhibition at 0.5 µM: 8.21%
SRC
  inhibition at 0.5 µM: 2.91%
SRM
  inhibition at 0.5 µM: 2.66%
TRKC [1]
  inhibition at 0.5 µM: 99%
[2]; cynomolgus monkey, Macaca fascicularis liver microsome
  half-life: 27.6 h
[2]; mouse, CD - 1 mice liver microsome
  half-life: 1.7 h
TRKA
  IC50: 111 nM
TRKB
  IC50: 23.7 nM
TRKC [3]
  IC50: 25.5 nM
c-Met kinase
  IC50: 0.98 nM
[4]
  Phosphorylated c-Met level: significant reduction
[5]
  Phosphorylated c-Met level: significant reduction
[6]
  Toxicity in H&E-stained heart, liver, lung and kidney: no evidence of toxicity
Cyclin D1
  Cyclin D1 expression: substantially inhibited
